Test system: NeuroD1 and NeuroD2 genes
Assay: RT PCR of NeuroD genes after TSA and 5AzaC treatment of adult hippocampal neural stem cells
Format: cell-based, rat
Conditions: 5 nM for 2 days
Description: To determine whether either of these mechanisms contributed to repression of the NeuroD promoter, adult hippocampal neural stem cells were treated with either an HDAC inhibitor, trichostatin A (TSA), or with the de-methylation reagent 5′-aza-cytidine (5AzaC). Total RNA was extracted from cells that had been treated with 5 nM TSA for 2 days and with 3 μM 5AzaC for 4 days. RT PCR analysis was performed with specific primers for NeuroD1 (SEQ ID NOs:7 and 8) and NeuroD2 (SEQ ID NOs:9 and 10) genes and a control gene, GAPDH (SEQ ID NOs:3 and 4).

## CC(/C=C/C(=O)NO)=C\[C@@H](C)C(=O)c1ccc(N(C)C)cc1 [TSA, trichostatin A]
  expression of GAPDH (control gene): no effects
Compared with untreated progenitor cultures
  endogenous expression levels of mRNAs of NeuroD1 and NeuroD2: increased
